“And” between values parts separate entries of the source, which are not always exact repeats. Identical values can stand only once.
Columns and labels:
[1] = tested on: irritation-induced reduction in bladder capacity; test: Dilute Acetic Acid Model-Rats (filling cystometry); assay type: in vivo, rat; details: intraduodenal
Excerpt: The abdominal cavity was moistened with saline and closed by covering with a thin plastic sheet in order to maintain access to the bladder for emptying purposes. Fine silver or stainless steel wire electrodes were inserted into the external urethral sphincter (EUS) percutaneously for electromyography (EMG).
P<0.050 was considered significant.

[2] = tested on: reduction in bladder capacity seen following continuous infusion of dilute acetic acid; test: Dilute Acetic Acid Model-Cats; assay type: in vivo, cat; details: 3 point dose response, 3.0, 10.0 or 30 mg/ml dosed by body weight; P<0.0103; individual significance at 30 mg/kg
Description: Six alpha-chloralose anesthetized (50-100 mg/kg) normal female cats (2,5-3.5 kg; Harlan) were utilized in this study.
Female cats (2.5-3.5 kg; Harlan) had their food removed the night before the study. The following morning, the cats were anesthetized with isoflurane and prepped for surgery using aseptic technique. Polyethylene catheters were surgically placed to permit the measurement of bladder pressure, urethral pressure, arterial pressure, respiratory rate as well as for the delivery of drugs. Fine wire electrodes were implanted alongside the external urethral anal sphincter. […] During control cystometry, saline was slowly infused into the bladder (0.5-1.0 ml/min) for 1 hour. The control cystometry was followed by 0.5% acetic acid in saline for the duration of the experiment.
Data was analyzed using a non-parametric One-Way ANOVA (Friedman Test) with the post-hoc Dunn's multiple comparison t test. P<0.05 was considered significant.

[3] = tested on: acetic acid-induced colonic hypersensitivity; test: Visceromotor response to colorectal distension in acetic acid-sensitized rats
Description: The visceromotor behavioral response to colorectal distension was measured by counting the number of abdominal contractions recorded by a strain gauge sutured onto the abdominal musculature as described in Gunter et al., Physiol. […] A 5 cm latex balloon catheter inserted via the anal canal into the colon was used for colorectal distensions. Constant pressure tonic distensions were performed in a graded manner (15, 30 or 60 mmHg) and were maintained for a period of 10 min and the numbers of abdominal muscle contractions were recorded to measure the level of colonic sensation. A 10 min recovery was allowed between distensions.
J. Physiol. […] In the present study, a low concentration of acetic acid (1.5 ml, 0.6%) was administered intracolonically to sensitize the colon without causing histological damage to the colonic mucosa as described in previous studies (Gunter et al., supra).
Injection volume was 0.2 mL using 100% propylene glycol as the vehicle. Three consecutive colorectal distensions at 15, 30 or 60 mmHg applied at 10-min intervals were recorded. Visceromotor responses were evaluated as the number of abdominal muscle contractions recorded during the 10-min periods of colorectal distension.
Adult male rats were used in the study. […] Specifically, rats were anesthetized with Isoflurane (2%) and were instrumented with a strain gauge force transducer for recording of abdominal muscle contractions. A latex balloon and catheter were inserted 11 cm into the colon. The animals were allowed a 30-min period to completely recover from the anesthesia and were then subjected to intracolonic infusion of acetic acid (1.5 mL, 0.6%). An additional 30-min period was allowed for sensitization of the colon. […] The protocol for colorectal distension was initiated 30-min post drug administration. After a basal reading of the number of abdominal contractions with the balloon inserted but not distended, three consecutive 10-min lasting colorectal distensions at 15, 30, and 60 mmHg were applied at 10-min intervals. Colorectal sensitivity was evaluated by counting the number of reflex abdominal contractions (i.e. the visceromotor response) observed within each distension period.
The visceromotor behavioral response to colorectal distension was measured by counting the number of abdominal contractions recorded by a strain gauge sutured onto the abdominal musculature as previously described Gunter et al., referenced above. Colorectal distensions were carried out utilizing a 5 cm latex balloon catheter inserted into the colon via the anal canal. Constant pressure tonic distensions were performed in a graded manner, i.e., the pressure was increased to the desired level of 15, 30, or 60 mmHg and then maintained for a period of 10 minutes during which the number of abdominal contractions were recorded to measure the level of colonic sensation. Ten minute recovery periods were allowed following each distension.

[4] = tested on: stress-induced accelerated colonic transit; test: Water avoidance stress (WAS) model of increased colonic transit, fecal pellet output; assay type: in vivo, rat; details: 3, 10 or 30 mg/kg i.p.
Excerpt: At the end of the 1-hour stress period, the fecal pellets were counted and recorded. WAS causes an acceleration of colonic transit, which can be quantified by counting the number of fecal pellets, produced during the stress procedure. Rats were placed for 1-hour into a stress chamber onto a raised platform 7.5 cm×7.5 cm×9 cm (L×W×H) in the center of a stress chamber filled with room temperature water 8 cm in depth. The stress chamber was constructed from a rectangular plastic tub (40.2×60.2×31.2 cm). […] Ondansetron was supplied from APIN Chemicals LTD. […] MCI-225 was provided by Mitsubishi Pharma Corp. All drugs were dissolved in a vehicle of 100% propylene glycol (1,2-propanediol) by sonicating for a period of 10 minutes. Propylene glycol was obtained from Sigma Chemical Co. […] All drugs and the vehicle were administered as an i.p. injection in a volume of 0.2 mL.

[5] = tested on: small intestinal transit; test: Small Intestinal Transit Rodent Model (charcoal meal); assay type: in vivo, rat; details: for Small intestinal transit, Mean (% of total length): 15 min test period
Description: Following an overnight fast, rats were brought to the laboratory in their home cages and received an i.p. injection of one of the following: […] Control rats received no treatment. The treated rats were placed back in the home cages and after 30 min, were fed a 2 mL charcoal meal via an oral gavage. Small intestinal transit was measured following 15 min test-period. Each rat was placed briefly in a glass chamber with IsoFlo for anesthesia and sacrificed. The stomach and the small intestine were removed and the total length of the small intestine was measured. Transit was then measured as the distance that the charcoal meal had traveled along the small intestine and expressed as % of the total length. Animals were randomly assigned to experimental groups and experiments were performed as illustrated in Table 11. Small intestinal transit in rats was investigated by the passage of a charcoal meal along the small intestine during a defined time period (15-min). The animals were deprived of food for 12-16 hrs prior to the experiments. Rats were given a charcoal meal (a mixture of charcoal, gum arabic, and distilled water) as a 2 mL oral gavage and were sacrificed after a 15-min test period. The distance traveled by the charcoal meal was quantified as a percent of the small intestinal length, using the following equation: Transit (%)=cm traveled by meal/cm total small intestinal length×100 […]

[6] = tested on: retching and vomiting induced by cisplatin; test: Cisplatin-induced emesis in the ferret; assay type: in vivo, ferret (Mustela putorius furo)
Description: Following administration of the cisplatin and either MCI-225, ondansetron or vehicle alone, the occurrence of retching and vomiting was monitored for a period of 6 hours. […] Vomiting was defined as the forceful oral expulsion of upper gastrointestinal contents. The latency of the retching or vomiting response and the number of episodes were recorded for each animal and summarized for each experimental group (Wright et al., Infect. […] Following one hour of acclimation to the observation cage, ferrets received an intraperitoneal (i.p.) injection of cisplatin (5 mg/kg in 5 mL) followed in about 2 minutes by i.p. injection of a single dose of MCI-225 or ondansetron (Rudd and Naylor, Eur. J. Pharmacol., 322: 79-82 (1997)). […] Each animal received a single-dose drug treatment. In addition, three animals received an initial dose (30 mg/kg i.p.) and a second MCI-225 injection (30 mg/kg i.p.) 180 minutes following the initial dose. […] All groups were randomized.

[7] = 30 mg/kg b.i.d, second dose 180 minutes after the first

## 4-(2-fluorophenyl)-6-methyl-2-(piperazin-1-yl)thieno[2,3-d]pyrimidine hydrochloride [MCI-225]
[1]; 10 mg/kg, p<0.05 Dunn's test
  Bladder capacity versus AA/Veh 3: significantly higher than AA/Veh 3
[1]; 30 mg/kg, p<0.001 Dunn's test
  Bladder capacity versus AA/Veh 3: significantly higher than AA/Veh 3
[1]; 3-30 mg/kg, n=8, p=0.0005 by Friedman test
  Bladder capacity: dose-dependent increase
[2]
  Bladder capacity following acetic acid irritation: significant dose-dependent increase
[3]; 10 mg/kg i.p., 15, 30 and 60 mmHg
  Number of abdominal contractions in response to colorectal distension, compared to the vehicle: significant decrease
[3]; 30 mg/kg i.p.
  Effect on visceromotor response relative to lower dose: less effective
[3]; 30 mg/kg i.p., n=6
  Animals in which the visceromotor response to CRD was eliminated: 50 % of the animals
[4]
  WAS-induced fecal pellet output during 1 hour: significant dose-dependent inhibition
[5]; 3 mg/kg i.p.
  Small intestinal transit, Mean (% of total length): 30.1%
[5]; 10 mg/kg i.p., hydrochloride
  Small intestinal transit, Mean (% of total length): 4.2±2.6% and 4.2%
[5]; 30 mg/kg i.p.
  Small intestinal transit, Mean (% of total length): 8.8%
[5]; 3, 10 or 30 mg/kg i.p.
  Effect on small intestinal transit compared to the vehicle: dose-dependent inhibition
[6]; 1 mg/kg i.p.
  Latency: 186 ± 35 min
  Retches (360 min): 30.4 ± 9.1
  Total Events: 32.9 ± 9.8
  Vomits (360 min): 2.5 ± 0.7
[6]; 10 mg/kg i.p.
  Latency: 192 ± 57 min
  Retches (360 min): 22.9 ± 10.3
  Total Events: 25.5 ± 11.1
  Vomits (360 min): 2.6 ± 1.0
[6]; [7]
  Latency: 360 ± 0 min
  Retches (360 min): 0.0 ± 0.0
  Total Events: 0.0 ± 0.0
  Vomits (360 min): 0.0 ± 0.0
[6]; 30 mg/kg i.p.
  Latency: 287 ± 38 min
  Retches (360 min): 3.3 ± 2.2
  Total Events: 4.0 ± 2.6
  Vomits (360 min): 0.7 ± 0.5
[6]; 1, 10 or 30 mg/kg i.p.
  Retches and vomits induced by cisplatin: dose-dependent reduction
[6]; two doses of 30 mg/kg, b.i.d at a 180-min interval
  Emetic response: eliminated

— patent US20070254891A1, “Crystalline forms of 4-(2-fluorophenyl)-6-methyl-2-(piperazin-1-yl)thieno[2,3-d]pyrimidine” (Dynogen Pharmaceuticals, Inc., priority 2006, published 2007)
